Results published in publication PMC6946680, “Modulation of brain cation-Cl^− cotransport via the SPAK kinase inhibitor ZT-1a” (Nature Communications, 2020).
Where “and” joins values, the source holds several entries; their conditions need not be identical. Identical values can stand only once.

Columns and labels:
[1] = test system: KCC3 pThr991/pThr1048; assay: Choroid plexus KCC3 phospho-IP/immunoblot in rat IVH model; format: in vivo
[2] = test system: mouse model of ischemic stroke (tMCAO); assay: Neurological deficit score after tMCAO; format: in vivo; settings: for Neurological score (score): Fig 7c, individual mice #1-#7; for neurological deficit score: ZT-1a 5.0 mg/kg
[3] = test system: mouse model of ischemic stroke (tMCAO); assay: Adhesive-removal test after tMCAO; format: in vivo; settings: for Adhesive removal time: Fig 7c, individual mice #1-#7
[4] = test system: KCC3; assay: Immunoblot of total KCC3 / Actin in HEK-293 cells transfected with FLAG-KCC3; format: cell-based, human; settings: Fig S4b
[5] = test system: KCC4 pThr926/pThr980; assay: Choroid plexus KCC4 phospho-IP/immunoblot in rat IVH model; format: in vivo
[6] = test system: mouse model of ischemic stroke (tMCAO); assay: Ex vivo T2-weighted MRI and DTI of brains 7 days post tMCAO; format: in vivo
[7] = test system: KCC1 pThr927/pThr983; assay: Choroid plexus KCC1 phospho-IP/immunoblot in rat IVH model; format: in vivo
[8] = test system: AMPK (hum); assay: Kinase profiling panel; format: biochemical, human
Description: Supplementary Table 2. ZT-1a kinase profiling data6.
ZT-1a was tested at 10 and 1 µM against a panel of 140 recombinant kinases in an enzymatic
activity-based assay performed by the International Centre for Kinase Profiling in the MRC
Protein Phosphorylation and Ubiquitylation Unit. Values represent % residual kinase activity

[9] = test system: mouse primary cortical neurons; assay: Cell volume measurement (calcein-AM) under hyperosmotic stress, primary cortical neurons; settings: Fig 5b trace
[10] = rat CPe 48 h post IVH + 1a, replicates
[11] = 7 days post stroke, ZT-1a 5.0 mg/kg

## Cc1cc(C(C#N)c2ccc(Cl)cc2)c(Cl)cc1NC(=O)c1cc(Cl)ccc1O (centres unmarked) [ZT-1a, 5-chloro-N-(5-chloro-4-((4-chlorophenyl)(cyano)methyl)-2-methylphenyl)-2-hydroxybenzamide]
[1]; [10]
  KCC3 pThr991 / Actin: 0.089 and 0.127 and 0.217 and 0.096 and 0.114 and 0.223
  KCC3 pThr1048 / Actin: 0.504 and 0.573 and 0.821 and 0.586 and 0.633 and 0.872
[1]; rat CPe, ICV ZT-1a
  reduction of post-IVH KCC3 phosphorylation at Thr991: 6 fold
  reduction of post-IVH KCC3 phosphorylation at Thr1048: 2.1 fold
[2]; Day 0
  Neurological score (score): 3 score
[2]; Day 1
  Neurological score (score): 3 score and 2 score (5×) and 1 score
[2]; Day 3
  Neurological score (score): 2 score (6×) and 1 score
[2]; Day 5
  Neurological score (score): 1 score (3×) and 2 score (4×)
[2]; Day 7
  Neurological score (score): 1 score (4×) and 2 score (3×)
[2]; day 1 post tMCAO
  neurological deficit score: 2.0 ± 0.2
[2]; day 7 post tMCAO
  neurological deficit score: 1.4 ± 0.2
[3]; Day 1
  Adhesive removal time: 15 seconds and 27 seconds and 70 seconds and 120 seconds and 28 seconds (2×) and 85 seconds
[3]; Day 3
  Adhesive removal time: 26 s and 16 s and 65 s and 29 s and 9 s and 41 s and 62 s
[3]; Day 5
  Adhesive removal time: 36 s and 27 s and 56 s and 35 s and 15 s and 28 s and 24 s
[3]; Day 7
  Adhesive removal time: 8 seconds (2×) and 14 seconds and 57 seconds and 19 seconds and 16 seconds and 28 seconds
[3]; Day -1 (baseline)
  Adhesive removal time: 25 seconds and 8 seconds and 7 seconds (2×) and 11 seconds and 13 seconds and 22 seconds
[3]; ZT-1a 5.0 mg/kg, vs vehicle-control mice
  adhesive contact and removal tests: significantly improved motor function
[4]; ZT-1a 0.3 uM
  KCC3 / Actin: 2.04 and 1.923 and 2.091 and 1.84
[4]; ZT-1a 1 uM
  KCC3 / Actin: 1.85 and 1.949 and 1.921 and 1.782
[4]; ZT-1a 3 uM
  KCC3 / Actin: 1.87 and 1.905 and 1.972 and 1.73
[5]; [10]
  KCC4 / Actin: 2.09 and 2.11 and 2.1 and 2.05 and 2.15 and 2.12
  KCC4 pThr926 / Actin: 0.241 and 0.354 and 0.43 and 0.261 and 0.376 and 0.487
  KCC4 pThr980 / Actin: 0.279 and 0.426 and 0.524 and 0.299 and 0.447 and 0.541
[5]; rat CPe, ICV ZT-1a
  reduction of post-IVH KCC4 phosphorylation at Thr926/Thr980: ~ 2 fold
[6]; [11]
  EC tract FA values in the IL hemisphere: undiminished
  reduction of brain atrophy (% hemisphere shrinkage): ~ 41%
  reduction of stroke-induced lesion volume (T2-weighted MRI): ~ 40%
[6]; Fig 7d, CL hemisphere, individual brains
  EC FA value: 0.3452 and 0.2737 and 0.3976 and 0.3529 and 0.3132 and 0.3022 and 0.3144
[6]; Fig 7d, IL hemisphere, individual brains
  EC FA value: 0.3284 and 0.2019 and 0.3515 and 0.3727 and 0.2854 and 0.2283 and 0.2974
[6]; Fig 7d, individual brains
  % Shrinkage: 4.31% and 1.96% and 1.98% and 5.61% and 5.20% and 3.63% and 2.52%
  Lesion volume (mm3): 33.98 mm3 and 34.15 mm3 and 17.99 mm3 and 33.62 mm3 and 29.17 mm3 and 52.2 mm3 and 18.61 mm3
[7]; [10]
  KCC1 pThr983 / Actin: 0.273 and 0.737 and 0.782 and 0.302 and 0.649 and 0.721
[7]; rat CPe 48 h post IVH + 1a, replicates (Fig 4 source data)
  KCC1 pThr927 / Actin: 0.027 and 0.029 and 0.034 and 0.025 and 0.037 and 0.024
[7]; rat CPe, ICV ZT-1a
  reduction of post-IVH KCC1 phosphorylation at Thr927: 12 fold
  reduction of post-IVH KCC1 phosphorylation at Thr983: 3.4 fold
[8]; 1 µM
  % residual kinase activity: 126±4%
[8]; 10 µM
  % residual kinase activity: 108±4%
[9]; Time 1.00403
  Cell water (relative change): 1.0915 relative change
[9]; Time 2.00427
  Cell water (relative change): 1.001 relative change
[9]; Time 3.00425
  Cell water (relative change): 0.9646 relative change
[9]; Time 4.00423
  Cell water (relative change): 0.9689 relative change
[9]; Time 5.0042
  Cell water (relative change): 0.9837 relative change
[9]; Time 6.00445
  Cell water (relative change): 0.7025 relative change
[9]; Time 7.00442
  Cell water (relative change): 0.636 relative change
[9]; Time 8.00435
  Cell water (relative change): 0.6336 relative change
[9]; Time 9.00452
  Cell water (relative change): 0.5971 relative change
[9]; Time 10.0046
  Cell water (relative change): 0.5748 relative change
[9]; Time 11.0045
  Cell water (relative change): 0.5229 relative change
[9]; Time 12.0045
  Cell water (relative change): 0.4882 relative change
[9]; Time 13.0045
  Cell water (relative change): 0.4496 relative change
[9]; Time 14.0045
  Cell water (relative change): 0.4313 relative change
[9]; Time 15.0047
  Cell water (relative change): 0.4596 relative change
[9]; Time 16.0047
  Cell water (relative change): 0.433 relative change
[9]; Time 17.0047
  Cell water (relative change): 0.4137 relative change
[9]; Time 18.0047
  Cell water (relative change): 0.4143 relative change
[9]; Time 19.0049
  Cell water (relative change): 0.386 relative change
[9]; Time 20.0049
  Cell water (relative change): 0.3846 relative change
[9]; Time 21.0048
  Cell water (relative change): 0.3598 relative change
[9]; Time 22.0048
  Cell water (relative change): 0.3067 relative change
[9]; Time 23.005
  Cell water (relative change): 0.3082 relative change
[9]; Time 24.0048
  Cell water (relative change): 0.3082 relative change
[9]; Time 25.005
  Cell water (relative change): 0.2995 relative change
[9]; Time 26.0053
  Cell water (relative change): 0.543 relative change
[9]; Time 27.005
  Cell water (relative change): 0.6295 relative change
[9]; Time 28.005
  Cell water (relative change): 0.7317 relative change
